Measurements: PMC11098465, “A comparative analysis of peptide-delivered antisense antibiotics using diverse nucleotide mimics” (RNA, 2024)

What was measured:
Salmonella periplasm = assay: MALDI-TOF-based analysis of ASO-peptide conjugate uptake; type: cell-based; parameters: key to Uptake inside bacteria (MS): +++: Effect strength is represented by additional (+) signs.; ++: Effect strength is represented by additional (+) signs.; Effect strength is represented by additional (+) signs; details: 15 min; for Detection in the periplasmic fraction (in words): 10 µM KFF-ASO conjugates, MALDI MS; for Uptake inside bacteria (MS): ASO conjugated to the carrier peptide, 10 µM, MALDI-TOF of periplasm, summary grade
Method: Finally, to directly test if the ASO conjugates translocate into Salmonella, we used MALDI mass-spectrometry (MS) to identify ASO fragments in the bacterial periplasm after treatment with 10 µM KFF-ASO conjugates for 15 min (Table 2; Supplemental Figs. S7 and S8). […] This is in line with a study that reported that the KFF peptide is cleaved within the periplasm before translocation into the cytoplasm ([Yavari et al. 2021]). […] Importantly, none of the negASOs were detected in this subcellular fraction (Supplemental Fig. S8), likely explaining the lack of antibacterial effects against Salmonella.
The experiments were performed by modifying previously published protocols ([Yavari et al. 2021]). From an overnight culture of Salmonella, a second culture was inoculated (1:100) and grown to OD600 of 0.5 (corresponding to ∼2 × 10^8 cfu/mL). These bacterial cells were washed twice in MHB and resuspended in 95 µL of MHB with an additional incubation at 37°C for 5–10 min. Sterile ASO-peptide conjugates were prepared at concentrations of 200 µM. Five microliters of the 200 µM working solutions were added to 95 µL of bacteria in culture media, leading to a final concentration of the compounds of 10 µM. Five microliters of H2O was added as a negative control. The tubes were incubated at 37°C for 15 min with shaking at 300 rpm. Subsequently, they were centrifuged at 8000g for 5 min at 4°C. The supernatant was aspirated, and the pellet was washed with 0.01 M Tris-HCl before being resuspended in 200 µL of 0.01M Tris-HCl containing 0.5 M Sucrose, 150 µg/mL lysozyme, 10 mM EDTA and incubated at 37°C overnight. These tubes were then centrifuged at 2000g at 4°C for 10 min. The supernatant obtained represents the periplasm. The periplasm fragment was then mixed with 2,6-Dihydroxyacetophenone (DHAP) in ACN 1:1, spotted on a MALDI plate, and analyzed for MALDI-TOF-MS in a Bruker DaltonicsUltrafleXtreme Instrument. The experiment was performed two times, and data of one representative experiment are shown.

AcpP::3xFLAG = assay: Western blot of AcpP::3xFLAG protein levels after ASO treatment; type: cell-based, Salmonella enterica serovar Typhimurium SL1344 AcpP::3xFLAG; parameters: key to AcpP protein reduction: +++: Effect strength is represented by additional (+) signs.; ++: Effect strength is represented by additional (+) signs.; Effect strength is represented by additional (+) signs; details: for AcpP protein levels after treatment (in words): KFF-ASO 5 µM, 30, 60, 120 min; for AcpP protein reduction: KFF-ASO constructs at 5 µM, 120 min, summary grade
Description: We have previously shown that PNAs targeting acpP lead to rapid depletion of the target transcript ([Hör et al. 2022]; [Popella et al. 2022]; [Jung et al. 2023]), although this is not a universal phenomenon and varies from transcript to transcript ([Popella et al. 2022]). In other words, an ASO might block target protein synthesis without substantially impacting mRNA levels. Therefore, we wanted to test if the different ASO modalities affect AcpP protein levels in cellulo despite their inability to deplete the acpP transcript. We took advantage of Salmonella expressing a FLAG-tagged AcpP (AcpP::3xFLAG) protein from its native locus. First, we exposed the bacterial cells to PMO and PNA for 30, 60, or 120 min (Fig. 9A) to determine the best time point for our analysis.
Salmonella WT and SL1344 AcpP::3xFLAG were grown overnight in noncation adjusted MHB. Bacterial cultures were diluted 1:100, grown to OD600 0.5, and subsequently diluted to ∼10^6 cfu/mL in MHB. Then, 1.9 mL of each diluted bacterial solution was transferred into 5 mL low-binding tubes, preincubated at 37°C for 10 min, and treated with 100 µL of ASOs to adjust a final concentration of 5 µM. Water was added as negative control. The treatment with PNA and PMO was performed with aeration at 37°C and 220 rpm shaking for 30, 60, and 120 while for all other ASOs, they were treated for 120 min only. Subsequently, the cells were collected by centrifugation at 4°C and 16,000g for 5 min, resuspended in 1× Protein Loading Buffer (62.6 mM Tris–HCl pH 6.8, 2% SDS, 0.1 mg/mL bromophenol blue, 15.4 mg/mL DTT, 10% glycerol) and denatured at 95°C for 10 min.
For detection of AcpP::3xFLAG protein levels, samples were separated on a 12% SDS-PAA gel and transferred onto a nitrocellulose membrane via semi-dry western blotting. The membrane was probed with an α-FLAG antibody (Sigma; 1:1000 in 1× TBS-T containing 3% BSA) at 4°C overnight. After washing in 1× TBS-T, the membrane was incubated with a secondary HRP-conjugated antimouse antibody (Thermo Scientific; 1:5000 in 1× TBS-T containing 1% BSA) at RT for 1 h. Excessive antibody was removed by repeated wash-steps in 1× TBS-T, and the membrane was developed by an Amersham ECL Select Western Blotting Detection Reagent Kit (Cytiva).

Substance	Detection in the periplasmic fraction (in words) (Salmonella periplasm)	Uptake inside bacteria (MS) (Salmonella periplasm)	Fragments detected (Salmonella periplasm; periplasm, 10 µM KFF-ASO conjugate, MALDI-TOF-MS)	AcpP protein levels after treatment (in words) (AcpP::3xFLAG)	AcpP protein reduction (AcpP::3xFLAG)
PMO: phosphorodiamidate morpholino 10mer ASO, sequence CTCATACTCT, targeting acpP −5 to +5 (all phosphorodiamidate morpholino (PMO))	detected in the periplasmic fraction	+	only the PMO fragment was observed in the periplasm	gradual depletion of AcpP, albeit less pronounced than PNA	+
PNA: peptide nucleic acid 10mer ASO, sequence CTCATACTCT, targeting acpP −5 to +5 (all peptide nucleic acid (PNA))	detected in the periplasmic fraction	+	–	depletion in AcpP levels can be observed from 60 min post-treatment onward	++
